We go through 17 compounds from US8859555B2, “Lysine Specific Demethylase-1 inhibitors and their use” (Oryzon Genomics S.A., priority 2009, dated 2014).

The target of assay [1] is T1, Human recombinant LSD1 protein (Homo sapiens, UniProt O60341).
T1 construct: purchased BPS Bioscience Inc
Nature of the assay: LSD1 inhibition, Amplex Red peroxide/peroxidase-coupled demethylase assay. The assay is classed as biochemical. To be noted: for Ki: Ki range class.
Text: Human recombinant LSD1 protein was purchased from BPS Bioscience Inc. In order to monitor LSD1 enzymatic activity and/or its inhibition rate by our inhibitor(s) of interest, di-methylated H3-K4 peptide (Millipore) was chosen as a substrate. The demethylase activity was estimated, under aerobic conditions, by measuring the release of H2O2 produced during the catalytic process, using the Amplex® Red peroxide/peroxidase-coupled assay kit (Invitrogen).
Within the experiment, each concentration of inhibitor was tested in triplicate. […] The enzymatic reactions were set up in a 50 mM sodium phosphate, pH 7.4 buffer. At the end of the incubation, Amplex® Red reagent and horseradish peroxidase (HPR) solution were added to the reaction according to the recommendations provided by the supplier (Invitrogen), and left to incubate for 30 extra minutes at room temperature in the dark. A 1 μM H2O2 solution was used as a control of the kit efficiency. The conversion of the Amplex® Red reagent to resorufin due to the presence of H2O2 in the assay, was monitored by fluorescence (excitation at 540 nm, emission at 590 nm) using a microplate reader (Infinite 200, Tecan). Arbitrary units were used to measure level of H2O2 produced in the absence and/or in the presence of inhibitor.
The maximum demethylase activity of LSD1 was obtained in the absence of inhibitor and corrected for background fluorescence in the absence of LSD1. The Ki of each inhibitor was estimated at half of the maximum activity.

The target of assay [2] is T2, Human recombinant monoamine oxidase MAO-B (Homo sapiens, UniProt P27338).
T2 construct: purchased Sigma Aldrich
T2 sequence (P27338 1-520): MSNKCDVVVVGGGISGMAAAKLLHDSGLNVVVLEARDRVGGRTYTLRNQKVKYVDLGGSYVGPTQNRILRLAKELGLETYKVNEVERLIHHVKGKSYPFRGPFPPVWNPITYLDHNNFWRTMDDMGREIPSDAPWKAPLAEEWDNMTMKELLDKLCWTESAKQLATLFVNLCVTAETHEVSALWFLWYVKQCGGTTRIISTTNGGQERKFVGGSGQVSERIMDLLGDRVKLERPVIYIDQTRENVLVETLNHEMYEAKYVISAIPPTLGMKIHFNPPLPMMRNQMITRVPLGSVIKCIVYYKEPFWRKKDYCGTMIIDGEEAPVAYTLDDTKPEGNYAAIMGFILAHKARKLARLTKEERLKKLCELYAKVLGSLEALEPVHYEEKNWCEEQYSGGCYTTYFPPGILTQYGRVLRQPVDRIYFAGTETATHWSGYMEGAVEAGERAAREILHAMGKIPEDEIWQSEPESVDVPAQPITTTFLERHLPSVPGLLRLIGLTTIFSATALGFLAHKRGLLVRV
Nature of the assay: MAO-B kynuramine fluorescence inhibition assay. The assay is classed as biochemical. To be noted: Ki range class.
Text: (§1) Human recombinant monoamine oxidase proteins MAO-A and MAO-B were purchased from Sigma Aldrich. […] In order to monitor MAO enzymatic activities and/or their inhibition rate by inhibitor(s) of interest, a fluorescent-based (inhibitor)-screening assay was set up. 3-(2-Aminophenyl)-3-oxopropanamine (kynuramine dihydrobromide, Sigma Aldrich), a non fluorescent compound was chosen as a substrate. Kynuramine is a non-specific substrate for both MAOs activities. While undergoing oxidative deamination by MAO activities, kynuramine is converted into 4-hydroxyquinoline (4-HQ), a resulting fluorescent product.
(§2) The monoamine oxidase activity was estimated by measuring the conversion of kynuramine into 4-hydroxyquinoline. Assays were conducted in 96-well black plates with clear bottom (Corning) in a final volume of 100 μL. The assay buffer was 100 mM HEPES, pH 7.5. Each experiment was performed in triplicate within the same experiment.
(§3) Briefly, a fixed amount of MAO (0.25 μg for MAO-A and 0.5 μg for MAO-B) was incubated on ice for 15 minutes in the reaction buffer, in the absence and/or in the presence of various concentrations of inhibitor (e.g., from 0 to 50 μM, depending on the inhibitor strength).
(§4) After leaving the enzyme(s) interacting with the inhibitor, 60 to 90 μM of kynuramine was added to each reaction for MAO-B and MAO-A assay respectively, and the reaction was left for 1 hour at 37° C. in the dark. The oxidative deamination of the substrate was stopped by adding 50 μL (v/v) of NaOH 2N. The conversion of kynuramine to 4-hydroxyquinoline, was monitored by fluorescence (excitation at 320 nm, emission at 360 nm) using a microplate reader (Infinite 200, Tecan). Arbitrary units were used to measure levels of fluorescence produced in the absence and/or in the presence of inhibitor.
(§5) The Ki of each inhibitor was measure at Vmax/2.

For assay [3], the target named is T3, Human recombinant monoamine oxidase MAO-A (Homo sapiens, UniProt P21397).
T3 construct: purchased Sigma Aldrich
T3 sequence (P21397 1-527): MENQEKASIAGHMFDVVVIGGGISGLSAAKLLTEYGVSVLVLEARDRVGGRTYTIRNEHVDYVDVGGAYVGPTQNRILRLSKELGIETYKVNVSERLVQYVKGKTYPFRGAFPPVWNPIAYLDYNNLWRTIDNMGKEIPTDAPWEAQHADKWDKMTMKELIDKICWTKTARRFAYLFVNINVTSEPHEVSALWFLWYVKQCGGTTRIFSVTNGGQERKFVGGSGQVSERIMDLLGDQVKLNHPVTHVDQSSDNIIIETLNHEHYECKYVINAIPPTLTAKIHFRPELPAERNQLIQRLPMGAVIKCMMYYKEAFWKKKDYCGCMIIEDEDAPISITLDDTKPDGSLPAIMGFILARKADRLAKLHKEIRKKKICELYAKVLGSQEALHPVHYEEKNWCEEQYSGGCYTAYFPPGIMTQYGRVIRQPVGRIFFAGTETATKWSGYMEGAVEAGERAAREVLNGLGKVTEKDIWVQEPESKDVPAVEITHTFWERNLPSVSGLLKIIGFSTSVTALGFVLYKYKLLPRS
Nature of the assay: MAO-A kynuramine fluorescence inhibition assay. Format: biochemical.
Text: as §1, §2, §3, §4, §5

For assay [4], the system named is human colon cancer cell line HCT116. As to the kind of experiment: Cancer cell line study, alamarBlue viability assay. Format: cell-based. To be noted: HCT-116, dose required to inhibit cell growth by 50%, 72 hours, read-out: EC50 value for HCT-116 cells. Here is the method: The human colon cancer cell line HCT116 was obtained from the American Type Culture Collection (ATCC; CCL-247). The HCT116 cell line was maintained in DMEM GlutaMAX (Invitrogen) supplemented with 10% fetal calf serum. Cells were grown in a humidified incubator at 37 C in 5% CO2. Cells were plated in 96-well plates at a density of 6000 cells/well in 100 μl medium 24 h before addition of drugs. They were then added in concentrations from 100 μM to 0.45 nM (each concentration in triplicate). To do so, a drugs-dilution plate at twice the screening concentrations was prepared. 72 hours later, alamarBlue (Biosource, Invitrogen) viability assay was performed following manufacturer's protocol. In brief, alamarBlue diluted in media was added to cells to have a 5% solution. Cells were incubated at 37 C, 3 hours and at room temperature, 30 min. Cells with no drug and, cells with no drug and lysed with triton X-100 were used as controls. Fluorescence was monitored at 530 nm excitation and 590 nm emission wavelengths. Results were quantified using Infinite F200 Microplate Reader (Tecan Group, Ltd.). EC50 were calculated as the dose of drugs required to inhibit cell growth by 50%, with Origin 7.0 computer program.

[5] abbreviates: Ki range class, read-out: MAO A (Ki).

Where a name gives a salt, the structure may show the parent alone. Read-outs that look alike come from different tables or passages of the source.

On to `CN1CCN(CCN[C@@H]2C[C@H]2c2ccccc2)CC1` (relative stereo) [Example 1, N-[2-(4-methylpiperazin-1-yl)ethyl]-N-[(trans)-2-phenylcyclopropyl]amine dihydrochloride salt], for which the figures for the Ki in assay [1], in assay [2] and in assay [3] (setting [5]) were 1 to 100 nM, 1000 to 40000 nM and above 40000 nM, respectively.
Take `c1ccc([C@@H]2C[C@H]2NCCNC2CC2)cc1` (relative stereo) [Example 2, N-cyclopropyl-N′-[(trans)-2-phenylcyclopropyl]ethane-1,2-diamine dihydrochloride salt]: the Ki in assay [1] was 100 to 1000 nM; in assay [2] it was 100 to 1000 nM; in assay [3] (setting [5]), 1000 to 40000 nM.
Take `CN(C)CCNCCN[C@@H]1C[C@H]1c1ccccc1` (relative stereo) [Example 3, N,N-dimethyl-N′-(2-{[(trans)-2-phenylcyclopropyl]amino}ethyl)ethane-1,2-diamine]: the Ki in assay [1] was 100 to 1000 nM; in assay [2], 1000 to 40000 nM; in assay [3] (setting [5]), above 40000 nM.
With `Cl.Cl.c1ccc([C@@H]2C[C@H]2NCCN2CCNCC2)cc1` (relative stereo) [Example 7, N-[(trans)-2-phenylcyclopropyl]-N-(2-piperazin-1-ylethyl)amine dihydrochloride salt], the Ki was 1 to 100 nM in assay [1]; above 40000 nM in assay [2]; around 40000 nM in assay [3] (Ki (IC50), in these assays described herein, read-out: Ki for MAO-A). The “MAO A (Ki)” value in assay [3] (Ki range class) is “I, II”.
On to `CCN(CC)CCN[C@@H]1C[C@H]1c1ccccc1` (relative stereo) [Example 8, N1,N1-diethyl-N2-((trans)-2-phenylcyclopropyl)ethane-1,2-diamine dihydrochloride salt], for which the Ki in assay [1] is 1 to 100 nM; in assay [2], above 40000 nM; in assay [3] (setting [5]), 1000 to 40000 nM.
Consider `c1ccc([C@@H]2C[C@H]2NCCN2CCCCC2)cc1` (relative stereo) [Example 9, N-[(trans)-2-phenylcyclopropyl]-N-(2-piperidin-1-ylethyl)amine], for which the Ki is 1 to 100 nM in assay [1], 1000 to 40000 nM in assay [2] and above 40000 nM in assay [3] (setting [5]).
For the compound `CN1CCN(CCN[C@@H]2C[C@H]2c2ccc(OCc3ccccc3)cc2)CC1` (relative stereo) [Example 10, (trans)-2-(4-(benzyloxy)phenyl)-N-(2-(4-methylpiperazin-1-yl)ethyl)cyclopropanamine dihydrochloride salt], the Ki in assay [1] fell in the range of 1 to 100 nM; in assay [2] it was 1000 to 40000 nM; in assay [3] (setting [5]), 1000 to 40000 nM. Besides, in assay [4], the EC50 was around 11000 nM.
For `CN1CCN(CCN[C@@H]2C[C@H]2c2ccc(-c3cccc(C(F)(F)F)c3)cc2)CC1` (relative stereo) [Example 11, (Trans)-N-(2-(4-methylpiperazin-1-yl)ethyl)-2-(3′-(trifluoromethyl)biphenyl-4-yl)cyclopropanamine dihydrochloride], the Ki in assay [1] is 1 to 100 nM; in assay [2], 1000 to 40000 nM; in assay [3] (setting [5]), 1000 to 40000 nM.
On to `CN1CCN(CCN[C@@H]2C[C@H]2c2ccc(-c3cccc(Cl)c3)cc2)CC1` (relative stereo) [Example 12, (Trans)-2-(3′-chlorobiphenyl-4-yl)-N-(2-(4-methylpiperazin-1-yl)ethyl)cyclopropanamine dihydrochloride], for which the Ki lay within 1 to 100 nM in assay [1] and 1000 to 40000 nM in assay [2].
As for `FC(F)(F)c1cccc(-c2ccc([C@@H]3C[C@H]3NCCNC3CC3)cc2)c1` (relative stereo) [Example 14, N^1-cyclopropyl-N^2-((trans)-2-(3′-(trifluoromethyl)biphenyl-4-yl)cyclopropyl)ethane-1,2-diamine], the Ki lay in the range of 100 to 1000 nM in assay [1] and 1000 to 40000 nM in assay [3] (setting [5]). Moreover, in assay [2], the “MAO B (Ki)” value was “II, I II”.
With `CC(C)CSCCN[C@@H]1C[C@H]1c1ccccc1` (relative stereo) [Example 15, N-(trans)-2-(isobutylthio)-ethyl-2-phenylcyclopropanamine hydrochloride], the Ki lay within 100 to 1000 nM in assay [1], 1000 to 40000 nM in assay [2] and 1000 to 40000 nM in assay [3] (setting [5]).
On to `CCOCCN[C@@H]1C[C@H]1c1ccccc1` (relative stereo) [Example 16, N-trans-(2-ethoxyethyl)-2-phenylcyclopropanamine hydrochloride], for which the Ki in assay [1] was 100 to 1000 nM; in assay [2], 1000 to 40000 nM; in assay [3] (setting [5]) it was 1000 to 40000 nM.
Consider `COCCN[C@@H]1C[C@H]1c1ccccc1` (relative stereo) [Example 17, N-trans-(2-methoxyethyl)-2-phenylcyclopropanamine hydrochloride], for which the Ki in assay [1] was 100 to 1000 nM; in assay [2] it was 1000 to 40000 nM; in assay [3] (setting [5]) it was 1000 to 40000 nM.
On to `Cl.Cl.N[C@@H]1CCN(CCN[C@H]2CC2c2ccccc2)C1` (stereo partly drawn) [Example 4, (3R)-1-(2-{[(trans)-2-phenylcyclopropyl]amino}ethyl)pyrrolidin-3-amine dihydrochloride salt], for which the Ki in assay [1] was 1 to 100 nM; in assay [2], above 40000 nM; in assay [3] (setting [5]), above 40000 nM. For the same compound, the “Ki value for LSD1 lower than Ki values for MAO-A and MAO-B” value in assay [1] (selectivity LSD1 versus MAO-A and MAO-B) is given as “more than 100 fold”.
For the compound `CN(C)[C@H]1CCN(CCN[C@H]2CC2c2ccccc2)C1` (stereo partly drawn) [Example 5, (3S)—N,N-dimethyl-1-(2-{[(trans)-2-phenylcyclopropyl]amino}ethyl)pyrrolidin-3-amine dihydrochloride salt], the Ki in assay [2] and in assay [3] (setting [5]) was above 40000 nM each time.
With `CN(C)[C@@H]1CCN(CCN[C@H]2CC2c2ccccc2)C1` (stereo partly drawn) [Example 6, (3R)—N,N-dimethyl-1-(2-{[(trans)-2-phenylcyclopropyl]amino}ethyl)pyrrolidin-3-amine], the Ki in assay [2] and in assay [3] (setting [5]) was 1000 to 40000 nM throughout.
Take `N[C@@H]1CCN(CCN[C@H]2CC2c2ccc(-c3cccc(C(F)(F)F)c3)cc2)C1` (stereo partly drawn) [Example 13, (R)-1-(2-((trans)-2-(3′-(trifluoromethyl)biphenyl-4-yl)cyclopropylamino)ethyl)pyrrolidin-3-amine dihydrochloride]: the Ki in assay [1] was 1 to 100 nM; in assay [2], 1000 to 40000 nM; in assay [3] (setting [5]), 1000 to 40000 nM.
